Measurements taken from patent US20250230193A1, “CYCLIC COMPOUND HAVING SELECTIVE KRAS INHIBITORY EFFECT ON HRAS AND NRAS” (CHUGAI SEIYAKU KABUSHIKI KAISHA, priority 2022, published 2025).
Where a SMILES comes first, the peptide text is derived from it. Bridges are numbered along the chain shown (N, C = ends). [ ]: non-standard residue; d: D form. hPhe(3-Cl-4-CF3) = N[C@@H](CCc1ccc(C(F)(F)F)c(Cl)c1)C(=O)O; NPrPhe(4-CF3) = CCCN[C@@H](Cc1ccc(C(F)(F)F)cc1)C(=O)O; NMeGly(cPent) = CN[C@H](C(=O)O)C1CCCC1; Hyp = O=C(O)[C@@H]1C[C@@H](O)CN1; NMeD = CN[C@@H](CC(=O)O)C(=O)O; NMeL = CN[C@@H](CC(C)C)C(=O)O; Ac5c = NC1(C(=O)O)CCCC1; Aze = O=C(O)[C@@H]1CCN1; Sar = CNCC(=O)O

How the values were obtained:
[1] = target: GDP-bound NRAS wild-type protein (Homo sapiens, UniProt P01111); test: Binding to NRAS by surface plasmon resonance (SPR), Single Cycle Kinetics
Sequence of GDP-bound NRAS wild-type protein (P01111 whole entry): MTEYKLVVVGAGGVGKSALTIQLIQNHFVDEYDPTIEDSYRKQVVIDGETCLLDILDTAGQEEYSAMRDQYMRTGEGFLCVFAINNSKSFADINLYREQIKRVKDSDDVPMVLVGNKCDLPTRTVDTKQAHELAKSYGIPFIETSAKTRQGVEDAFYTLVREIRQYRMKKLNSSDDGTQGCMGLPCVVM

[2] = target: GDP-bound HRAS wild-type protein (Homo sapiens, UniProt P01112); test: Binding to HRAS by surface plasmon resonance (SPR), Single Cycle Kinetics
Sequence of GDP-bound HRAS wild-type protein (P01112 whole entry): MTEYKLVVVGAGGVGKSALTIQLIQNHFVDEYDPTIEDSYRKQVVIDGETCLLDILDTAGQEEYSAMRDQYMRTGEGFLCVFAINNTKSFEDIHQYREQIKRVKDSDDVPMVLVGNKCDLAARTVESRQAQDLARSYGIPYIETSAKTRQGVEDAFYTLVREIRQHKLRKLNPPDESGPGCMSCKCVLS

[3] = GDP-bound NRAS wild-type vs GDP-bound KRAS wild-type, SPR
[4] = GDP-bound HRAS wild-type vs GDP-bound KRAS wild-type, SPR

| SMILES | NRAS/KRAS (ratio of KD value for NRAS to KD value for KRAS) [1, 3] | HRAS/KRAS (ratio of KD value for HRAS to KD value for KRAS) [2, 4] | NRAS/KRAS (ratio of KD value with respect to GDP-bound NRAS wild-type protein to KD value with respect to KRAS) ([1]; class symbols) | HRAS/KRAS (ratio of KD value with respect to GDP-bound HRAS wild-type protein to KD value with respect to KRAS) ([2]; class symbols) | also measured |
| --- | --- | --- | --- | --- | --- |
| CCC[C@H]1C(=O)N[C@@H]([C@@H](C)CC)C(=O)N(C)CC(=O)N(C)[C@H]2C/C=C\CCN(C2=O)[C@@H](Cc2ccc(C(F)(F)F)cc2)C(=O)N(C)CC(=O)N[C@@H](CCc2cc(F)c(C(F)(F)F)c(F)c2)C(=O)N2C[C@H](OCC)C[C@H]2C(=O)NC2(CC(C)(C)C2)C(=O)N(C)[C@@H](C(CC)CC)C(=O)N(C)[C@H](C(=O)N(C)C)CC(=O)N1C [PP2125] |  |  |  |  | NRAS/KRAS (ratio of KD value with respect to NRAS to KD value with respect to KRAS) ([1]; SPR, GDP-bound NRAS wild-type vs GDP-bound KRAS wild-type): AA (a compound having 20 or more is denoted as AA); HRAS/KRAS (ratio of KD value with respect to HRAS to KD value with respect to KRAS) ([2]; SPR, GDP-bound HRAS wild-type vs GDP-bound KRAS wild-type): A (a compound having 10 or more and less than 20 is denoted as A) |
| CCCN(C)C(=O)[C@@H]1CC(=O)N(C)[C@@H](CC(F)F)C(=O)N[C@@H]([C@@H](C)CC)C(=O)N(C)CC(=O)N(C)[C@H]2C/C=C\CCN(C2=O)[C@@H](Cc2ccc(C(F)(F)F)cc2)C(=O)N(C)CC(=O)N[C@@H](CCc2cc(F)c(C(F)(F)F)c(F)c2)C(=O)N2C[C@H](OCC)C[C@H]2C(=O)NC2(CC(F)(F)C2)C(=O)N(C)[C@@H](C2CCCC2)C(=O)N1C [PP1733] | A (a compound having 10 or more and less than 20 is denoted as A) | A (a compound having 10 or more and less than 20 is denoted as A) |  |  |  |
| CCO[C@@H]1C[C@H]2C(=O)NC3(CC(C)(C)C3)C(=O)N(C)[C@@H](C(CC)CC)C(=O)N(C)[C@H](C(=O)N3CCCC3)CC(=O)N(C)[C@H]3CCC/C=C/c4ccc(cc4)C[C@@H](C(=O)N(C)CC(=O)N[C@@H](CCc4ccc(Cl)c(Cl)c4)C(=O)N2C1)N1CC/C=C\C[C@@H](C1=O)N(C)C(=O)CN(C)C(=O)[C@H]([C@@H](C)CC)NC3=O [PP2581] |  |  | AA (a compound having 20 or more is denoted as AA) | A (a compound having 10 or more and less than 20 is denoted as A) |  |
| CCOC[C@H]1C(=O)N[C@@H]([C@@H](C)CC)C(=O)N(C2CC2)CC(=O)N(C)[C@H]2C/C=C\CCN(C2=O)[C@@H](Cc2ccc(C)cc2)C(=O)N(C)CC(=O)N[C@@H](CCc2ccc(Cl)c(Cl)c2)C(=O)N2C[C@H](OCC)C[C@H]2C(=O)NC2(CC(C)(C)C2)C(=O)N(C)[C@@H](CC(C)(C)C)C(=O)N(C)[C@H](C(=O)N(C)C)CC(=O)N1C [PP2728] |  |  | AA (a compound having 20 or more is denoted as AA) | A (a compound having 10 or more and less than 20 is denoted as A) |  |
| CCCN1C(=O)CN(C)C(=O)[C@@H]2CCN2C(=O)[C@H]([C@@H](C)CC)NC(=O)[C@H](CC(C)C)N(C)C(=O)C[C@@H](C(=O)N(C)C)N(C)C(=O)[C@H](C2CCCC2)N(C)C(=O)C2(CCCC2)NC(=O)[C@@H]2C[C@@H](OCC)CN2C(=O)[C@H](CCc2ccc(C(F)(F)F)c(Cl)c2)NC(=O)CN(C)C(=O)[C@@H]1Cc1ccc(C(F)(F)F)cc1 [PP0433] ([NMeL]I[Aze][Sar][NPrPhe(4-CF3)][Sar][hPhe(3-Cl-4-CF3)][Hyp](Et)[Ac5c][NMeGly(cPent)][NMeD]-NMe2; lactam N-11) |  |  |  |  | NRAS/KRAS (ratio of KD value with respect to GDP-bound NRAS wild-type protein to KD value with respect to KRAS) ([1]; SPR): B (a compound having 3 or more and less than 10 is denoted as B); HRAS/KRAS (ratio of KD value with respect to GDP-bound HRAS wild-type protein to KD value with respect to KRAS) ([2]; SPR): B (a compound having 3 or more and less than 10 is denoted as B) |
| CCO[C@@H]1C[C@H]2C(=O)NC3(CC(C)(C)C3)C(=O)N(C)[C@@H](C3CCCC3)C(=O)N(C)[C@H](C(=O)N(C)C)CC(=O)N3CCCCC[C@H]3C(=O)N[C@@H]([C@@H](C)CC)C(=O)N(C)CC(=O)N(C)[C@H]3C/C=C\CCN(C3=O)[C@@H](Cc3ccc(C(F)(F)F)cc3)C(=O)N(C)CC(=O)N[C@@H](CCc3cc(F)c(C(F)(F)F)c(F)c3)C(=O)N2C1 [PP1915] | A (a compound having 10 or more and less than 20 is denoted as A) | A (a compound having 10 or more and less than 20 is denoted as A) |  |  |  |
